# From PMC10667816, “A Cell‐Penetrant Peptide Disrupting the Transcription Factor CP2c Complexes Induces Cancer‐Specific Synthetic Lethality” (Advanced Science, 2023)
# Where a SMILES comes first, the peptide text is derived from it.
# Legend:
# [1] = In vivo metabolic stability test by live imaging; design: species or system mouse; conditions: Hep3B CDX Balb/c nude mice, intravenous Cy5‐ACP52C 17 mg kg^−1, live imaging fluorescence over 24 h
# Description: (1 picture or pasted object on this page, not shown here)
# Scale bar represents 10 μm.
# [2] = target: T1, endogenous nuclear and cytoplasmic CP2c complexes (Homo sapiens, UniProt Q12800); assay: DSP crosslinking‐Western blot of endogenous CP2c complexes; assay type: cell-based; conditions: DSP XL‐WB and WB with new protein synthesis inhibition
# T1 construct: dissociated all endogenous nuclear and cytoplasmic CP2c complexes; endogenous in cells
# Protocol: Cell extracts were prepared using lysis buffer (50 mM Tris‐HCl, pH 7.4, 150 mM NaCl, 1 mM EDTA, 0.1% triton X‐100, and 1 mM PMSF). The cell extracts were separated by SDS‐PAGE and electro‐blotted onto polyvinylidene difluoride (PVDF) membranes (GE healthcare, 10600069). For slot blotting, the cell extracts were blotted onto nitrocellulose (NC) membranes (GE healthcare, 10484059) using a Bio‐Dot (Bio‐Rad, 1706542). Typically, membranes were blocked with 5% non‐fat dry milk in a solution of 0.1% Tween 20, and with 5% BSA in case of biotin blotting. Membranes were incubated overnight at 4 °C with appropriate dilutions of the primary antibodies (listed in Table S4, Supporting Information) after blocking. The blots were incubated for 1 h at room temperature with the respective HRP‐conjugated secondary antibodies (listed in Table S4, Supporting Information). Polyclonal ACTB antibody was used as a loading control for WB. […] Relative amounts of proteins were quantified using Image J (ver. 1.51) program.
# To determine DNA‐free CP2c containing complexes, live cells were washed twice with the 2.5 mM sodium phosphate buffer, pH 7.4, crosslinked using 2 mM DSP in PBS for 3 h on ice, and crosslinking was terminated with 50 mM Tris‐HCl, pH 7.4, for 15 min at room temperature. […] Crosslinked samples were analyzed by pulldown assay or mass spectrometry.
# [3] = tested on: cisplatin‐resistant cancer cells; assay: Growth inhibition in cisplatin‐resistant cancer cells; assay type: cell-based, human; conditions: cisplatin‐resistant variants of Hep3B, HCT116, MDA‐MB‐231
# Protocol: Information of the cell lines is listed in Table S1 (Supporting Information), including their origin and culture conditions. All cell lines were cultured at 37 °C, 5% CO2 incubator. MDA‐MB‐231 (LM1), HepG2, Hep3B, and HCT116 cell lines were authenticated with short tandem repeat markers based on ATCC information. All cell lines tested negative for mycoplasma contamination. Transient downregulation of the gene of interest was conducted by siRNA transfection using Lipofectamine 2000 (Thermo Fisher, 11668019) according to the manufacturer's instructions. Information about siRNAs is provided in Table S2 (Supporting Information). […] For erythroid terminal differentiation experiments, differentiation was assessed by hemoglobin staining using a 0.2% (w/v) tetramethylbenzidine solution (Sigma–Aldrich, T0440) in 0.6% hydrogen peroxide, 3% acetic acid for 10 min in dark condition. Benzidine‐positive or negative cell numbers were counted under the inverted microscope BX50 (Olympus) at 200 × magnification. […] After each synchronization, cells were fixed at 4‐h intervals for 24 h with ACP52C treatment, and the cell cycle was analyzed by Propidium Iodide (PI) staining or intracellular protein was analyzed by immunofluorescence. […] This development period was repeated four times for one round, after which GI50 concentrations were re‐assessed in each resistant cell line. […]
# [4] = tested on: ACP52C‐resistant cancer cell lines; assay: Growth inhibition of resistant cells with CASP2 inhibition; assay type: cell-based, human; conditions: combined with CASP2 inhibiting peptide Ac‐VDVAD‐CHO (10 µM)
# Protocol: Various cell lines were treated with peptides, either alone or in combination with the CASP2 inhibitor (Ac‐VDVAD‐CHO; Enzo ALX‐260‐058‐M001) at various concentrations for 4 days. Cell viability was assessed on day 2 or day 4 using MTT (3‐(4,5‐dimethylthiazol‐2‐yl)‐2,5‐diphenyltetrazolium bromide; Sigma–Aldrich, M2128) assay. In brief, fresh cells were seeded in flat‐bottomed 96‐well tissue culture plates at appropriate concentrations for each cell line per well using complete culture medium. The cells were incubated in 100 µL of culture medium containing various concentration of chemicals or peptides at 37 °C for 0 to 96 h. A solution of MTT (5 mg mL^−1) was added to the culture medium, and the cells were further incubated at 37 °C for an additional 3 h. The MTT medium was then removed, and the formazan crystals were dissolved in DMSO (100 µL per well). The formazan concentration was measured spectrophotometrically at 490 nm using a Varioskan Flash Spectral Scanning Multimode Reader (Thermo Scientific Korea). Nonlinear regression curves for growth inhibition and GI50 values for each cell line were estimated from independent replicates using the Prism (version 6) software (GraphPad Software Inc.)
# T1 sequence (Q12800 whole entry, one chain of several): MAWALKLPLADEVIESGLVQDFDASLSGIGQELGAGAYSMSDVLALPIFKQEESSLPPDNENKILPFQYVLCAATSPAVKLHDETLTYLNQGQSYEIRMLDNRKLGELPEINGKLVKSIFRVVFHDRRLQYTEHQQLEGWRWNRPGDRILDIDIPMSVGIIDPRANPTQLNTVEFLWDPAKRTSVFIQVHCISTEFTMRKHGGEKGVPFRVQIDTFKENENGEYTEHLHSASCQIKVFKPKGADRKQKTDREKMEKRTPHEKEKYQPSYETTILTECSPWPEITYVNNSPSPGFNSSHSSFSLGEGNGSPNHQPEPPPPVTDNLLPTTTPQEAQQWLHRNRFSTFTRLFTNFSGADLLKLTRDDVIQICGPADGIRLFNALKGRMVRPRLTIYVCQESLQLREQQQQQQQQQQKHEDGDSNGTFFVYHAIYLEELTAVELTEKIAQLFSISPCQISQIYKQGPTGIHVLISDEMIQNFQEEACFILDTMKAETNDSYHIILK
smiles,measurement,setting,value
CC(=O)N[C@@H](CC(N)=O)C(=O)N[C@@H](Cc1ccc(O)cc1)C(=O)N1CCC[C@H]1C(=O)N[C@@H](CCC(N)=O)C(=O)N[C@@H](CCCNC(=N)N)C(=O)N1CCC[C@H]1C(=O)N[C@@H](CS)C(=O)N[C@@H](CCCNC(=N)N)C(=O)NCC(=O)N[C@@H](CC(=O)O)C(=O)N[C@@H](CCCCN)C(=O)NCC(=O)N1CCC[C@H]1C(=O)N[C@@H](CC(=O)O)C(=O)N[C@@H](CS)C(N)=O [ACP52C] (Ac-NYPQRPCRGDKGPDC-NH2),"systemic metabolic stability in vivo (RL50, time for 50% retention of fluorescence)",[1],≈ 7.8 h
same,dissociation of endogenous CP2c complexes,[2],readily dissociated all endogenous nuclear and cytoplasmic CP2c complexes
same,anticancer activity in cisplatin‐resistant cells,[3],effectiveness in targeting cisplatin‐resistant cancer cells
same,sensitization by combined treatment,[4],sensitized ACP52C‐resistant cancer cell lines
